From patent US7709488B2, “Imidazopyridine-derivatives as inducible no-synthase inhibitors” (Altana Pharma AG, priority 2003, dated 2010) come the findings set out here.

Data set [1] concerns the target human inducible NO-synthase (Homo sapiens, UniProt P35228). Briefly: Measurement of inducible NO-synthase activity ([3H]arginine conversion, crude cytosolic fraction). In kind it is biochemical. Particulars: 0.1 μM arginine, 45 to 60 min at 37° C., pH 7.2; read-out: Inhibition of iNOS activity [measured as −logIC50 (mol/l)] (converted). The method, then: Measurement of Inducible NO-Synthase Activity
The assay is performed in 96-well microtiter F-plates (Greiner, Frickenhausen, FRG) in a total volume of 100 μl in the presence of 100 nM calmodulin, 226 μM CaCl2, 477 μM MgCl2, 5 μM flavin-adenine-dinucleotide (FAD), 5 μM flavin mononucleotide (FMN), 0.1 mM NADPH, 7 mM glutathione, 10 μM BH4 and 100 mM HEPES pH 7.2. Arginine concentrations are 0.1 μM for enzyme inhibition experiments. 150000 dpm of [^3H]arginine are added to the assay mixture. Enzyme reaction is started by the addition of 4 μg of a crude cytosolic fraction containing human inducible NO-synthase and the reaction mixture is incubated for 45 to 60 min at 37° C. Enzyme reaction is stopped by adding 10 μl of 2M MES-buffer pH 5.0. 50 μl of the incubation mixture are transferred into a MADP N65 filtration microtiter plate (Millipore, Eschbom, FRG) containing already 50 μl of AG-50W-X8 cation exchange resin (Biorad, München, FRG). The resin in the Na loaded form is pre-equilibrated in water and 70 μl (corresponding to 50 μl dry beads) are pipetted under heavy stirring with a 8 channel pipette into the filtration plate. After pipetting 50 μl of the enzyme reaction mixture onto the filtration plates, the plates are placed on a filtration manifold (Porvair, Shepperton, UK) and the flow through is collected in Pico scintillation plates (Packard, Meriden, Conn.). The resin in the filtration plates is washed with 75 μl of water (1×50 μl and 1×25 μl) which is also collected in the same plate as the sample. The total flow through of 125 μl is mixed with 175 μl of Microscint-40 scintillation cocktail (Packard) and the scintillation plate is sealed with TopSeal P-foil (Packard). Scintillation plates are counted in a scintillation counter.
For the measurement of inducible NO-synthase-inhibiting potencies of compounds increasing concentrations of inhibitors were included into the incubation mixture. IC50-values were calculated from the percent inhibition at given concentrations by nonlinear least square fitting.
The inhibitory values determined for the compounds according to the invention follow from the following table A, in which the compound numbers correspond to the example numbers.

Structures are written as SMILES.

Usually melting point stands for the temperature of the solid-liquid transition. The compound `COc1ccnc(CCc2nc3cc(-c4ccc(S(=O)(=O)N(C)C)cc4C)cnc3[nH]2)c1` [Compound 23, 4-{2-[2-(4-Methoxypyridin-2-yl)ethyl]-3H-imidazo[4,5-b]pyridin-6-yl}-N,N-dimethyl-3-methyl-benzenesulfonamide] had a melting point of 179 to 180 °C. The IC50 in data set [1] is 67.6 nM.
On the same counts, the results for `COc1ccnc(CCc2nc3cc(-c4ccc(S(=O)(=O)Nc5ccc(C)cc5)cc4)cnc3[nH]2)c1` [Compound 25, 4-{2-[2-(4-Methoxypyridin-2-yl)ethyl]-3H-imidazo[4,5-b]pyridin-6-yl}-N-p-tolyl-benzenesulfonamide] are 219 to 220 °C and 43.7 nM.
On the same counts, the results for `COc1ccnc(CCc2nc3cc(-c4ccc(S(=O)(=O)Nc5ccccc5OC)cc4)cnc3[nH]2)c1` [Compound 26, 4-{2-[2-(4-Methoxypyridin-2-yl)ethyl]-3H-imidazo[4,5-b]pyridin-6-yl}-N-(2-methoxyphenyl)-benzenesulfonamide] are 215 to 216 °C and 34.7 nM.
The corresponding values for `COc1ccnc(CCc2nc3cc(-c4ccc(S(=O)(=O)Nc5ccc(N(C)C)cc5)cc4)cnc3[nH]2)c1` [Compound 27, N-(4-Dimethylamino-phenyl)-4-{2-[2-(4-methoxypyridin-2-yl)ethyl]-3H-imidazo-[4,5-b]pyridin-6-yl}benzenesulfonamid] are 221 to 222 °C and 45.7 nM.
